Results taken from patent US20050113337A1, “Enhancement of oral bioavailability of non-emulsified formulations of prodrug esters with lecithin” (TAP Pharmaceutical Products, Inc., priority 2001, published 2005).

Assays:
[1] = Solubility of cefditoren pivoxil in lecithin dispersions; type: physicochemical
Method: The solubility of cefditoren pivoxil in various lecithins was determined as follows. Three types of lecithin were tested: lecithin (LECI-PC 35P available from Traco Labs, IL), modified lecithin (containing 70% maltodextrin and 30% phosphatidyl choline; ALCOLEC SM 100 available from American Lecithin Inc. of CT) and hydroxylated lecithin (CENTROLENE A, available from Central Soya, IN). 5%, 10% and 15% suspensions of each type of lecithin were made up in distilled deionized water to form the test dispersions. Cefditoren pivoxil (available from Meiji Saika Kaisha Ltd of Japan) was added to each test dispersion. Each sample was vortexed for one minute, sonicated for two minutes, vortexed again for one minute and then centrifuged at 2000 rpm for ten minutes at room temperature. The resulting supernatant fraction was collected, filtered through a 0.45 μm filter and analyzed by HPLC.

[2] = tested on: Carboxylesterase from porcine liver; experiment: Esterase degradation of cefditoren pivoxil; type: in vitro ADME; settings: 20 minutes, 37° C.; for amount of cefditoren pivoxil remaining: esterase; for % cefditoren pivoxil remaining: simulated intestinal fluid
Method: First, a test was performed to determine whether cefditoren pivoxil is degraded by esterase. 25 mg of cefditoren pivoxil (available from Meiji Saika Kaisha Ltd of Japan) was dissolved in 100 ml of an aqueous solution containing 10% dimethylsulfoxide and 0.1 N. hydrochloric acid to make up an 0.25 mg/ml solution. Carboxylesterase (also referred to as esterase herein) from porcine liver (15 mg protein/ml, 250 units/mg protein, available from Sigma-Aldrich) was dissolved in simulated intestinal fluid (SIF having no added pancreatin, available from Sigma-Aldrich) to make up a solution having 0.5 units/ml.
2 ml of the cefditoren pivoxil solution was then mixed with 2 ml of the esterase solution and 2 ml of simulated intestinal fluid. This mixture was allowed to react for 20 minutes at 37° C. and then the reaction was quenched with 1.0 ml of acetonitrile. This procedure was repeated with esterase at two other concentrations.
The experimental procedure was as described above, except that the cefditoren pivoxil was dissolved in 3% lecithin (LECI-PC 35 P, available from Traco Labs of IL).
The amount of cefditoren pivoxil remaining in each of the samples was determined by HPLC, and compared to the amount of cefditoren pivoxil of a control solution. The control solution was 2.0 ml cefditoren pivoxil, 2.0 ml of 10% modified lecithin solution and 2.0 ml simulated intestinal fluid incubated and then quenched as above.

cefditoren pivoxil
solubility ([1]; in aqueous lecithin solution (LECI-PC 35P)): 678.5 µg/mL | solubility ([1]; in hydroxylated lecithin (CENTROLENE A)): 715.0 µg/mL | solubility ([1]; in modified lecithin (ALCOLEC SM 100)): 868.1 µg/mL | solubility ([1]; in water alone): 31.8 µg/mL | amount of cefditoren pivoxil remaining ([2]; cefditoren pivoxil dissolved in 3% lecithin (LECI-PC 35 P)): 57.4% | amount of cefditoren pivoxil remaining ([2]; control (non-lecithin containing) solution): 7% | % cefditoren pivoxil remaining ([2]; esterase concentration 0.05 units/ml): 81.9% | % cefditoren pivoxil remaining ([2]; esterase concentration 0.5 units/ml): 4.5% | % cefditoren pivoxil remaining ([2]; esterase concentration 5 units/ml): 0.3%
